pIC50: −log10 of the molar value.
What was measured:
Wild-type SP286 strain = assay: IC50 measurement of growth inhibition in YES broth (final O.D600, Prism); type: cell-based; details: Schizosaccharomyces pombe, 30° C., 24 hours, read-out: IC50 (drug-induced inhibition against cell growth)
Procedure: In order to determine the concentration of the chemical for the treatment, 50% inhibitory concentration (IC50) was first measured. Wild-type SP286 strain was grown to O.D600=2.0 in YES broth and inoculated with from 5- to 10-fold serial dilutions of the chemical to O.D600=0.1, followed by incubation at 30° C. for 24 hours. At each concentration of the chemical, the cultures were measured for final O.D600 values which were then plotted against Log [Chemical Concentration]. On the basis of these plots, IC50 values were automatically calculated using Prism Software (version 3.0, GraphPad Software Inc., San Diego, Calif.). Scientific experience made it possible to determine the concentrations of the chemical at around the appropriate IC50 values.
In order to screen terbinafine's modes of action with the GeneChip, first, the treatment concentrations of drug were determined by the measurements of IC50 obtained in the above-mentioned method. In this regard, relative rates of drug-induced inhibition against cell growth were obtained by treating the cells with terbinafine at doses of 0.1 nM, 1 nM, 5 nM, 10 nM, 50 nM, 100 nM, 500 nM and […]. Analysis with Prism software determined IC50=40 nM (FIG. 11).

[1] = tested on: smb1 heterozygous deletion mutant; assay: Reconfirmation of GeneChip result on YES agar plates containing terbinafine; type: cell-based, Schizosaccharomyces pombe
Procedure: (§1) Since the drug's modes of action detected with the GeneChip might include the false positive signals resulting experiment errors and false chip analysis, all the top 10 drug's modes of action, except non-specific ribosome-related genes, were cultured again on YES agar plates containing terbinafine. […] Therefore, the genes erg1 and pmm1 within the red boxes were verified as being targets of terbinafine.

[2] = tested on: erg1 heterozygous deletion mutant; assay: as above; type: cell-based, Schizosaccharomyces pombe
Procedure: as §1

[3] = tested on: pmm1 heterozygous deletion mutant; assay: as above; type: cell-based, Schizosaccharomyces pombe
Procedure: as §1

Structure (SMILES): CN(C/C=C/C#CC(C)(C)C)Cc1cccc2ccccc12 [terbinafine]
- pIC50 (Wild-type SP286 strain): 7.40
- plate reconfirmation of GeneChip-based mode of action, smb1 [1]: difference from the chip result
- plate reconfirmation of GeneChip-based mode of action, erg1 [2]: same results as in the chip
- plate reconfirmation of GeneChip-based mode of action, pmm1 [3]: same results as in the chip

Source: patent US9670480B2, “Genome-wide construction of Schizosaccharomyces pombe heterozygous deletion mutants containing gene-specific barcodes by the methods of 4-round serial or block PCR, or total gene synthesis thereof” (Korea Research Institute of Bioscience and Biotechnology, priority 2008, dated 2017)
